{"source": "patent US4318864A", "about": "“Process for making s-phenenyltris(sulfonylimino)tri-benzene mono- and di-sulfonic acids and salts” (American Cyanamid Company, priority 1980, dated 1982)", "key": {"shunt pathway": {"system": "shunt pathway", "experiment": "Test Code 036 (C-Shunt inhibitor), lysis of human erythrocytes via cobra venom factor activated shunt pathway", "type": "biochemical", "set-up": "key: N = Negative", "details": "serial dilution assay, twofold dilutions"}, "[1]": {"system": "late components of human complement (C3-C9)", "experiment": "Test Code 035 (C3-C9 inhibitor), lysis of EAC 142", "type": "biochemical", "set-up": "key: N = Negative", "details": "serial dilution assay, twofold dilutions"}, "[2]": {"system": "complement activity in serum", "experiment": "Guinea Pig Intraperitoneal Test (GPIP)", "type": "in vivo", "details": "Cavia porcellus, ip, 200 mg./kg. i.p."}, "activated human C1": {"target": "activated human C1 (Homo sapiens, UniProt P09871)", "experiment": "Test Code 026 (C1 inhibitor)", "type": "biochemical", "details": "serial dilution assay, twofold dilutions; higher well number indicates higher activity"}}, "note": "Structures can show the parent of a compound that is named as a salt. Where two headings read alike, the source gives them in different places.", "data": [{"molecule": "O=S(=O)(O)c1cc(NS(=O)(=O)c2cc(S(=O)(=O)Nc3cc(S(=O)(=O)O)cc(S(=O)(=O)O)c3)cc(S(=O)(=O)Nc3cc(S(=O)(=O)O)cc(S(=O)(=O)O)c3)c2)cc(S(=O)(=O)O)c1", "note": "[5,5',5\"-[s-Phenenyltris(sulfonylimino)]tri-m-benzenedisulfonic acid, hexasodium salt]", "values": [{"measurement": "Shunt Inhibition 036 Wells", "setting": "shunt pathway", "result": "N"}, {"measurement": "C-Late 035 Wells", "setting": "[1]", "result": "N"}, {"measurement": "inhibition at 200 mg/kg", "setting": "[2]; 0.5 h, 30 min after injection, read-out: In Vivo Activity (Guinea pig) % Inhibition Intraperitoneal, 30 min", "result": -75, "unit": "%"}, {"measurement": "inhibition at 200 mg/kg", "setting": "[2]; 1 h, 60 min after injection, read-out: In Vivo Activity (Guinea pig) % Inhibition Intraperitoneal, 60 min", "result": -75, "unit": "%"}, {"measurement": "inhibition at 200 mg/kg", "setting": "[2]; 2 h, 120 min after injection, read-out: In Vivo Activity (Guinea pig) % Inhibition Intraperitoneal, 120 min", "result": -81, "unit": "%"}, {"measurement": "Cl 026 Wells", "setting": "activated human C1", "result": "+8 Wells"}]}]}
